Like-named read-outs stand apart in the source and are kept apart here.
Biological target: T1, Klenow exo- with template-primer (Escherichia coli, UniProt P00582, D355A/E357A)
T1 construct: purchased New England Biolabs
Type: binding
Details: for signal +polymerase + DUpNHPP: 0.3 uM Dye-DUTP conjugate, buffer background subtracted
Protocol: (1) Dideoxy terminated primer and template were mixed at a ratio of 2:1 (final template concentrations were varied as shown)
(2) DGTP DCTP and DATP was added to a final concentration of 1 mM.
(3) 0.3 uM of Intercalator-Dye-DUTP conjugate was added to the system.
(4) In some samples non-incorporable DUTP (DUPNHPP) was added as shown.
(5) 300 nM Klenow exo- was added
(6) The system was heated to at 37° C.
Where the intercalating dye is conjugated to DNPNHPP or other nonincorporable entities, then the dideoxy terminated primer is unnecessary and will allow sequential sequencing if a limited concentration of native bases are added.
Buffer background subtracted.

T1 sequence (P00582 324-928 D355A/E357A): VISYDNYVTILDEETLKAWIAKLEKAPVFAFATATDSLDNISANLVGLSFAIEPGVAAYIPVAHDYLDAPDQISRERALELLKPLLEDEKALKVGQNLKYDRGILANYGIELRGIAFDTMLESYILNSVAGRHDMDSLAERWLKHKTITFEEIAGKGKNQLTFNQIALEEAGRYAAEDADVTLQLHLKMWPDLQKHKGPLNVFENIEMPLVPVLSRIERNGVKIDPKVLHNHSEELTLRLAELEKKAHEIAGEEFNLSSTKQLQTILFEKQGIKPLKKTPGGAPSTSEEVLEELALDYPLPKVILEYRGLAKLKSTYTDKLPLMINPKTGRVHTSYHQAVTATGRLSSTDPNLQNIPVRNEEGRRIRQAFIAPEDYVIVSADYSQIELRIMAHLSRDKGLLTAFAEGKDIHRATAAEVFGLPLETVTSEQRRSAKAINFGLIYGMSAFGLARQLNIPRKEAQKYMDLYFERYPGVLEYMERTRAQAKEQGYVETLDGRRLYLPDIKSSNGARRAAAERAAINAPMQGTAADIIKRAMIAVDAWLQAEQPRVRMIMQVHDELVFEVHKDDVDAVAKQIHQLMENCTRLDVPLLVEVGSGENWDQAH

Question: `O=c1ccn([C@H]2CC(O)[C@@H](COP(=O)(O)NP(=O)(O)OP(=O)(O)O)O2)c(=O)[nH]1` (stereo partly shown) [DUPNHPP] was tested. Which “signal, T-P + Dye-DUTP + Primer1 + DUPNHPP” value (DUPNHPP added in competition with 0.3 uM Dye-DUTP, DUPNHPP concentration not given) did it give?
Answer: 320

Question: And the “signal +polymerase + DUpNHPP” value (Template-primer-a 0.015625 uM)?
Answer: 55

Question: And the “signal +polymerase + DUpNHPP” value (Template-primer-a 0.03125 uM)?
Answer: 114

Question: What about the “signal +polymerase + DUpNHPP” value (Template-primer-a 0.0625 uM) of the same compound?
Answer: 234

Question: And the “signal +polymerase + DUpNHPP” value (Template-primer-a 0.125 uM)?
Answer: 438

Question: What about the “signal +polymerase + DUpNHPP” value (Template-primer-a 0.25 uM) of the same compound?
Answer: 916

Question: And the “signal +polymerase + DUpNHPP” value (Template-primer-a 0.5 uM)?
Answer: 1802
